Source: patent US20250052763A1, “COMPOSITIONS AND METHODS FOR IDENTIFYING LIGANDS OF ODORANT RECEPTORS” (Duke University, priority 2021, published 2025)

Test system: odorant receptors (ORs) expressed by OSNs
Experiment: pS6-IP-Seq: identification of ORs activated by odorants in vivo
Parameters: species or system mouse
Conditions: for ORs identified as responsive by pS6-IP-Seq: responsive = log2FC>0 and FDR<0.05
Protocol: Phosphorylated S6 Ribosomal Capture (pS6-IP)
Mice used for pS6-IP were ˜3 weeks old, mixed sex, and littermates. Mice were killed by CO2 asphyxiation and cervical dislocation. Olfactory tissue was rapidly dissected in Buffer B (2.5 mM HEPES KOH pH 7.4, 0.63% glucose, 100 g/mL cycloheximide, 5 mM sodium fluoride, 1 mM sodium orthovanadate, 1 mM sodium pyrophosphate, 1 mM β-glycerophosphate, in Hank's balanced salt solution). Tissue pieces were then minced in 1.35 mL Buffer C (150 mM KCl, 5 mM MgCl2, 10 mM HEPES KOH pH 7.4, […], 2 mM DTT, 100 U/mL RNAsin, 100 µg/mL cycloheximide, protease inhibitor cocktail, 5 mM sodium fluoride, 1 mM sodium orthovanadate, 1 mM sodium pyrophosphate, 1 mM β-glycerophosphate) and subsequently transferred to homogenization tubes for steady homogenization at 250 rpm three times and at 750 rpm nine times at 4° C. […] This solution was mixed and then clarified at a max speed (17,000×g) for 10 min at 4° C. The resulting high-speed supernatant was transferred to a new tube where 20 μL was saved and transferred to a tube containing 350 L buffer RLT. To the remainder of the sample, 1.3 μL of 100 μg/mL cycloheximide, 27 μL of phosphatase inhibitor cocktail (250 mM sodium fluoride, 50 mM sodium orthovanadate, 50 mM sodium pyrophosphate, 50 mM β-glycerophosphate) and 6 μL of anti-pS6 antibody (Cell Signaling D68F8) were added. The sample was gently rotated for 90 min at 4° C. To prepare beads, 100 L of beads (Invitrogen 10002D) was washed three times with 900 L of buffer A (150 mM KCl, 5 mM MgCl2, 10 mM HEPES KOH pH 7.4, 10% NP40, 10% BSA), and once with 500 L of buffer C. Sample homogenate was added to the beads and incubated with gentle rotation for 60 min at 4° C. Following incubation, beads were washed with four times with 700 μL of buffer D (350 mM KCl, 5 mM MgCl2, 10 mM HEPES KOH pH 7.4, 10% NP40, 2 mM DTT, 100 U/mL RNAsin, 100 μg/mL cycloheximide, 5 mM sodium fluoride, 1 mM sodium orthovanadate, 1 mM sodium pyrophosphate, 1 mM β-glycerophosphate). During the final wash, beads were moved to room temperature, wash buffer was removed, and […] of buffer RLT was added. Beads were incubated in buffer RLT for 5 min at room temperature. Buffer RLT containing immunoprecipitated RNA was then eluted and stored at −80° C. until clean up using a kit (Qiagen 74004). cDNA was generated using 11 rounds of amplification with 10 ng RNA input. […] Libraries were sequenced on either HiSeq 2000/2500 (50 base pair single read mode) or NextSeq 500 (75 base pair single read mode) with 6-12 pooled indexed libraries per lane.
Reads mapping to Olfr290 were inferred from ENSMUSG00000070459, with the rationale that this gene model included ENSMUSG00000116179 plus untranslated regions. […] Intact Olfr genes with identifiable sequences were filtered, and p-values were then re-corrected by FDR. […] Raw and processed RNA-Seq datasets generated as part of this study are available from NCBI GEO at accession GSE185415.
First, ORs activated by a set of 61 odorants at various concentrations were determined by leveraging pS6-IP-Seq. […] ORs were considered odor-responsive if enrichment values (log2FC) were positive with a false discovery rate (FDR)<0.05.

In the case of `C=C(C)C1CCC(C)C(O)C1` (single isomer, unassigned; (+)) [(+)-dihydrocarveol], the “ORs identified as responsive by pS6-IP-Seq” value (odorant at 1%) is reported as “no ORs were identified as responsive”.

In the case of `C=C(C)C1CCC(C)C(O)C1` (single isomer, unassigned; (-)) [(−)-dihydrocarveol], the “ORs identified as responsive by pS6-IP-Seq” value (odorant at 1%) is reported as “no ORs were identified as responsive”.

`CC(=O)c1ccccc1O` [2′-hydroxyacetophenone] was tested, and the “number of ORs identified as responsive, relative to the mean” value (odorant at 1%, excluded from all analysis) was “more than five standard deviations away from the mean”.

For `C=C1CC/C=C(\C)CC[C@@H]2[C@@H]1CC2(C)C` [P-Caryophyllene], the “ORs identified as responsive by pS6-IP-Seq” value (odorant at 1%) was “no ORs were identified as responsive”.

For `C[C@]12CCC(=O)C[C@@H]1CC[C@@H]1[C@@H]2CC[C@]2(C)C=CC[C@@H]12` [androstenone], the “ORs identified as responsive by pS6-IP-Seq” value (odorant at 3 mM) was “no ORs were identified as responsive”.

`CSC` [dimethyl sulfide] was tested, and the “ORs identified as responsive by pS6-IP-Seq” value (odorant at 1%) was “no ORs were identified as responsive”.

In the case of `CC(C)=CCC/C(C)=C/CO` [geraniol], the “ORs identified as responsive by pS6-IP-Seq” value (odorant at 1%) is reported as “no ORs were identified as responsive”.

`c1ccc2[nH]ccc2c1` [indole] was tested, and the “ORs identified as responsive by pS6-IP-Seq” value (odorant at 1%) was “no ORs were identified as responsive”.

In the case of `CCC(=O)O` [propionic acid], the “ORs identified as responsive by pS6-IP-Seq” value (odorant at 1%) is reported as “no ORs were identified as responsive”.
